Measurements taken from ChEMBL document CHEMBL1154893, “Altaicalarins A-D, cytotoxic bisabolane sesquiterpenes from Ligularia altaica” (J Nat Prod, 2010).
In brackets after ≈: the same amount, converted by molar mass.

Columns and labels:
[1] = system: KB; assay: Cytotoxicity against human KB cells after 48 hrs by SRB assay
[2] = system: A549; assay: Cytotoxicity against human A549 cells after 48 hrs by SRB assay; settings: A549, 48 h
[3] = system: MCF7; assay: Cytotoxicity against human MCF7 cells after 48 hrs by SRB assay; settings: MCF7, 48 h
[4] = Cytotoxicity against human vincristine resistant KBVIN cells after 48 hrs by SRB assay

Row | SMILES | EC50 [1] [µg/mL] | EC50 [2] [µg/mL] | EC50 [3] [µg/mL] | EC50 [4] [µg/mL]
1 | C=C(C(CC1OC1(C)C)OC(=O)/C(C)=C\C)[C@@H]1[C@H](OC(=O)/C(C)=C\C)[C@@H]2O[C@]2(C)C(=O)[C@H]1OC(C)=O (stereo partly drawn) [ALTAICALARIN D] | > 20 | > 20 | > 20 | 18.9 (≈ 37.5 µM)
2 | C=C(c1ccc(C)c(O)c1O)C(CC=C(C)C)OC(=O)/C(C)=C\C (stereo not drawn) [ALTAICALARIN B] | 11.8 (≈ 35.7 µM) | > 20 | 10.8 (≈ 32.7 µM) | 15.9 (≈ 48.1 µM)
3 | COc1cc([C@@H]2c3cc4c(cc3[C@@H](O[C@@H]3O[C@@H]5CO[C@@H](C)O[C@H]5[C@H](O)[C@H]3O)[C@H]3COC(=O)[C@H]23)OCO4)cc(OC)c1O [ETOPOSIDE] | 3.9 (≈ 6.63 µM) | 0.4 (≈ 0.68 µM) | 16.4 (≈ 27.9 µM) | 8.8 (≈ 15 µM)
4 | C=C(C(CC(O)C(C)(C)O)OC(=O)/C(C)=C\C)[C@H]1C[C@H]2O[C@@]2(C)C(OC(=O)/C(C)=C\C)[C@H]1OC(C)=O (stereo partly drawn) | > 20 | > 20 | > 20 | > 20
5 | C=C(C(CC1OC1(C)C)OC(=O)/C(C)=C\C)[C@H]1C[C@H]2O[C@@]2(C)C[C@H]1OC(=O)/C(C)=C\C (stereo partly drawn) | > 20 | > 20 | > 20 | 11.4 (≈ 26.4 µM)
6 | C=C(C(CC=C(C)C)OC(=O)/C(C)=C\C)[C@@H]1C[C@@H]2O[C@]2(C)C(=O)[C@H]1OC(C)=O (stereo partly drawn) [ALTAICALARIN C] | 10.4 (≈ 26.6 µM) | 11.4 (≈ 29.2 µM) | 7.7 (≈ 19.7 µM) | 7.6 (≈ 19.5 µM)
7 | C=C(c1cc(O)c(C)c(O)c1OC(C)=O)C(CC=C(C)C)OC(=O)/C(C)=C\C (stereo not drawn) [ALTAICALARIN A] | 1 (≈ 2.57 µM) | 3.4 (≈ 8.75 µM) | 0.8 (≈ 2.06 µM) | 0.9 (≈ 2.32 µM)
